How the values were obtained:
[1] = test system: APESV; assay: Greenhouse test, pre-emergence (PE) soil application; type: in vivo, Apera spica-venti; parameters: key: % effect: 0 = no effect, 100 = full effect vs untreated
Excerpt: (§1) The 1:1 mixture of the two soil types was used specifically for cultivating small-seeded dicotyledonous weed since the standard field soil on its own tends to silt up, which may have an adverse effect on the emergence of small-seeded weeds. The resistances mentioned in the tables were confirmed beforehand in standard monitoring experiments. Nevertheless, the origins examined may have additional, hitherto unconfirmed resistances to various mechanisms of action.
(§2) The pots were then cultivated in a greenhouse (12-16 h light, temperature day 20-22° C., night 15-18° C.) until the time of application. The pots were treated at various BBCH stages of the seeds/plants on a laboratory track sprayer with spray liquors comprising the compositions according to the invention, mixtures of the prior art or the individual components. Application of the active compounds or active compound combinations and wetting agents formulated as WG, WP, EC or otherwise was carried out at the appropriate growth stages of the plants. The amount of water used for spray application was 100-600 l/ha. After the treatment, the plants were returned to the greenhouses and fertilized and watered as required. The pots were cultivated in a greenhouse (12-16 h light, temperature day 20-22° C., night 15-18° C.).
(§3) 3 weeks after the application, the foliar effect was evaluated on a scale of 0-100%:
(§4) 0%=no noticeable effect compared to untreated plants
(§5) 100%=full effect compared to untreated plants
(§6) The following abbreviations were used: • BBCH the BBCH code provides information about the morphological development stage of a plant. Officially, the abbreviation denotes the Biologische Bundesanstalt, Bundessortenamt and CHemische Industrie [Federal Biological Institute for Agriculture and Forestry, Federal Office for Crop Plant Varieties, Chemical Industry]. The range of BBCH 00-10 denotes the germination stages of the seeds until surface penetration. The range of BBCH 11-25 denotes the leaf development stages until stocking (corresponds to the number of tillers or side-shoots). • PE pre-emergence soil application; BBCH of the seeds/plants 00-10 • PO post-emergence application on the green parts of the plants; BBCH of the plants 11-25 • IU soil loamy silt—standard field soil • l/ha liters per hectare • S sensitive—the weed populations are sensitive to the active compounds tested • TSR target-site resistance. The weed populations comprise biotypes having a site-of-action-specific resistance, i.e. the binding site at the site of action is modified as a result of natural mutations in the gene sequence so that the active compounds are no longer able to bind, or bind in an unsatisfactory manner, and are therefore no longer able to act. • NTR non-target-site herbicide resistance; this is differentiated, inter alia, into EMR (Enhanced Metabolic Resistance) (the weed populations comprise biotypes having metabolic resistance, i.e. the plants are capable of metabolizing the active compounds more quickly via enzyme complexes, i.e. the active compounds are degraded more quickly in the plant), into reduced penetration into the plant, reduced translocation in the plant, accelerated excretion. […]

[2] = test system: ERIBO; assay: as above; type: in vivo, Erigeron bonariensis; parameters: key: % effect: 0 = no effect, 100 = full effect vs untreated
Excerpt: as §1, §2, §3, §4, §5, §6

[3] = test system: EPHHL; assay: as above; type: in vivo, Euphorbia heterophylla; parameters: key: % effect: 0 = no effect, 100 = full effect vs untreated
Excerpt: as §1, §2, §3, §4, §5, §6

[4] = test system: ALOMY; assay: Greenhouse test, post-emergence (PO) application, foliar effect; type: in vivo, Alopecurus myosuroides; conditions: ALOMY sensitive, (A) 50, (B) 20, mixture 50 + 20 g of AS/ha, 3 weeks after application
Excerpt: as §1, §2, §3, §4, §5, §6

[5] = test system: CHEAL; assay: Greenhouse test, pre-emergence (PE) soil application; type: in vivo, Chenopodium album; parameters: key: % effect: 0 = no effect, 100 = full effect vs untreated
Excerpt: as §1, §2, §3, §4, §5, §6

[6] = test system: ALOMY; assay: as above; type: in vivo, Alopecurus myosuroides
Excerpt: as §1, §2, §3, §4, §5, §6

[7] = test system: BIDSU; assay: as above; type: in vivo, Bidens subalternans
Excerpt: as §1, §2, §3, §4, §5, §6

[8] = test system: ERICA; assay: as above; type: in vivo, Erigeron canadensis; parameters: key: % effect: 0 = no effect, 100 = full effect vs untreated
Excerpt: as §1, §2, §3, §4, §5, §6

[9] = test system: AMAPA; assay: Greenhouse test, post-emergence (PO) application, foliar effect; type: in vivo, Amaranthus palmeri; conditions: AMAPA resistant - group B (TSR), C1 (TSR) and G (NTR), (A) 50, (B) 20, mixture 50 + 20 g of AS/ha, 3 weeks after application
Excerpt: as §1, §2, §3, §4, §5, §6

[10] = test system: EPHHL; assay: as above; type: in vivo, Euphorbia heterophylla; conditions: (A) 50, (B) 20, mixture 50 + 20 g of AS/ha, 3 weeks after application
Excerpt: as §1, §2, §3, §4, §5, §6

[11] = test system: TTTTT (all resistant and sensitive biotypes); assay: Greenhouse test, PE application, mean over all resistant and sensitive biotypes; type: in vivo; conditions: (A) 12.5, (B) 20, mixture 12.5 + 20 g of AS/ha; for TTTTT resistant mean (effect): mean of resistant biotypes (n = 16); for TTTTT sensitive mean (effect): mean of sensitive biotypes (n = 11)
Excerpt: as §1, §2, §3, §4, §5, §6

[12] = EPHHL resistant - group B (TSR) and G (NTR)
[13] = EPHHL resistant - group B (TSR)
[14] = group (B) compound alone, 20 g of AS/ha

SMILES	foliar effect [4] [%]	foliar effect [9] [%]	foliar effect [10, 12] [%]	foliar effect [10, 13] [%]	foliar effect ([10]; EPHHL sensitive) [%]	TTTTT resistant mean (effect) [11] [%]	TTTTT sensitive mean (effect) [11] [%]	effect on APESV resistant - group B (TSR, NTR) and K1/3 (NA) [1, 14]	effect on APESV sensitive [1, 14]	effect on ERIBO resistant - group B (NA) and G (NTR) [2, 14]	effect on ERIBO sensitive [2, 14]	effect on EPHHL resistant - group B (TSR) [3, 14]	effect on EPHHL resistant - group B (TSR) and G (NTR) [3, 14]	effect on EPHHL sensitive [3, 14]	effect on CHEAL resistant - group B (TSR), C1 (NA) and G (NTR) [5, 14]	effect on CHEAL sensitive [5, 14]	effect on ALOMY sensitive [6, 14]	effect on BIDSU sensitive [7, 14]	effect on ERICA resistant - group B (NA) and G (NTR) [8, 14]	effect on ERICA sensitive [8, 14]	further results
Cc1ccc2c(c1)[C@H](Nc1nc(N)nc(C(C)F)n1)[C@@H](C)C2 (stereo partly drawn) [(A), indaziflam]	75	50	50	55	60	52	68														effect on APESV resistant - group B (TSR, NTR) and K1/3 (NA) ([1]; (A) alone, 12.5 g of AS/ha): 70; effect on APESV sensitive ([1]; (A) alone, 12.5 g of AS/ha): 90; effect on ERIBO resistant - group B (NA) and G (NTR) ([2]; (A) alone, 12.5 g of AS/ha): 60; effect on ERIBO sensitive ([2]; (A) alone, 12.5 g of AS/ha): 70; effect on EPHHL resistant - group B (TSR) ([3]; (A) alone, 12.5 g of AS/ha): 0; effect on EPHHL resistant - group B (TSR) and G (NTR) ([3]; (A) alone, 12.5 g of AS/ha): 0; effect on EPHHL sensitive ([3]; (A) alone, 12.5 g of AS/ha): 50; effect on CHEAL resistant - group B (TSR), C1 (NA) and G (NTR) ([5]; (A) alone, 12.5 g of AS/ha): 65; effect on CHEAL sensitive ([5]; (A) alone, 12.5 g of AS/ha): 70; effect on ALOMY sensitive ([6]; (A) alone, 12.5 g of AS/ha): 85; effect on BIDSU sensitive ([7]; (A) alone, 12.5 g of AS/ha): 50; effect on ERICA resistant - group B (NA) and G (NTR) ([8]; (A) alone, 12.5 g of AS/ha): 60; effect on ERICA sensitive ([8]; (A) alone, 12.5 g of AS/ha): 70
COc1cc(OC)nc(NC(=O)NS(=O)(=O)c2ncccc2C(F)(F)F)n1 [(B1), flazasulfuron]	100	40	40	30	80	32	75	40	85	0	70	0	20	40	60	88	100	80	0	70	
COc1cc(OC)nc(NC(=O)NS(=O)(=O)c2cc(NC=O)ccc2C(=O)N(C)C)n1 [(B2), foramsulfuron]	100	40	40	30	80	22	73	20	95	0	100	0	0	30	40	80	90	30	0	100	
CCS(=O)(=O)c1cccnc1S(=O)(=O)NC(=O)Nc1nc(OC)cc(OC)n1 [(B3), rimsulfuron]	100	70	50	60	80	24	75	35	93	0	70	0	0	30	45	85	100	80	0	70	
CCOC(=O)c1ccccc1S(=O)(=O)NC(=O)Nc1nc(Cl)cc(OC)n1 [(B4), chlorimuron-ethyl]	100	30	30	30	60	29	82	40	90	0	100	0	40	60	60	90	100	90	0	100	
COC(=O)c1csc(C)c1S(=O)(=O)NC(=O)n1nc(OC)n(C)c1=O [(B5), thiencarbazone-methyl]	100	0	30	20	70	22	73	20	95	0	60	0	0	30	60	90	100	75	0	60	

Source: patent publication US9439430B2, “Method of controlling resistant harmful plants” (priority 2012, dated 2016)
